Results: BindingDB's records for patent US20240270732 (Chengdu Biobel Biotechnology Co., 2024)

Target: T1, Receptor-interacting serine/threonine-protein kinase 1 (Homo sapiens, UniProt Q13546)
T1 sequence (Q13546 whole entry): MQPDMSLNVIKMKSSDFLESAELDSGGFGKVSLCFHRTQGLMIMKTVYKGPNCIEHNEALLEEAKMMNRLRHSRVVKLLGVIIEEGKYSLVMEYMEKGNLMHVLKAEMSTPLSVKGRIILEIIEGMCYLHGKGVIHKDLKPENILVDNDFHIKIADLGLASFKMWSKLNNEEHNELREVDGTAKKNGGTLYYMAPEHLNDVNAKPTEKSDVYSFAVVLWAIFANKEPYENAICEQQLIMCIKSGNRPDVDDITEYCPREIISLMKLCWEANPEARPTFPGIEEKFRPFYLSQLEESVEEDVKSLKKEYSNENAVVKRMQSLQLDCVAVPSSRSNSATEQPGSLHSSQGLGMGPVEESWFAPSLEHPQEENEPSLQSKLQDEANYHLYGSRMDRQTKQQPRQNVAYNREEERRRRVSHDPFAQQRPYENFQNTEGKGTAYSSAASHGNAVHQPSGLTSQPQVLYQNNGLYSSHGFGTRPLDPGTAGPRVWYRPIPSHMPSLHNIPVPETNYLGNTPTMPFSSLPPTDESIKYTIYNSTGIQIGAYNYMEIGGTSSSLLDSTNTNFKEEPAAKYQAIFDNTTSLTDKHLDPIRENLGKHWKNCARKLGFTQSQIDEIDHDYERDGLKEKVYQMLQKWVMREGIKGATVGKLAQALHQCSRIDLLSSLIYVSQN
Experiment: Inhibitory Activity Assay
Method: The compound of the present invention and the control compound were dissolved in the assay buffer (50 mM Hepes pH 7.5, 50 mM NaCl, 30 mM MgCl2, 1 mM DTT, 0.02% CHAPS, 0.5 mg/mL BSA), and diluted in a ratio of 1:1.5 using a 22-point titration (high concentration 2 μM), and then added to a 384-well plate. […] After completion of the reaction, 5 μL of ADP-Glo reagent containing 0.02% CHAPS was added to each well and incubated at room temperature for 1 h to terminate the kinase reaction and use up all remaining ATP. Then, 5 μL of ADP-Glo detection solution containing 0.02% CHAPS was added to each well and incubated at room temperature for 30 min to measure the emittance intensity.

Row | SMILES | IC50 [µM]
1 | C[C@H]1Oc2ccc(C#CCN3CCN(CC#Cc4ccc5c(c4)N(C)C(=O)[C@@H](NC(=O)c4ncn(Cc6cccnc6)n4)[C@@H](C)O5)CC3)cc2N(C)C(=O)[C@H]1NC(=O)c1ncn(Cc2cccnc2)n1 [US20240270732, Compound I-74] | 0.0175
2 | C[C@H]1Oc2ccc(C#Cc3cccc(N)c3)cc2N(C)C(=O)[C@H]1NC(=O)c1ncn(Cc2ccccc2)n1 [US20240270732, Compound I-118] | 0.0138
3 | C#CCN1CCN(CC#Cc2ccc3c(c2)N(C)C(=O)[C@@H](NC(=O)c2cn(Cc4ccccc4)nn2)[C@@H](C)O3)CC1 [US20240270732, Compound I-53] | 0.0151
4 | C[C@H]1Oc2ccc(C#CCCO)cc2N(C)C(=O)[C@H]1NC(=O)c1ncn(Cc2ccccc2)n1 [US20240270732, Compound I-106] | 0.00653
5 | C[C@H]1Oc2ccc(C#CCN3CCN(CC#Cc4ccc5c(c4)N(C)C(=O)[C@@H](NC(=O)c4ncn(Cc6cccc(O)c6)n4)[C@@H](C)O5)CC3)cc2N(C)C(=O)[C@H]1NC(=O)c1ncn(Cc2cccc(O)c2)n1 [US20240270732, Compound I-76] | 0.0224
6 | C[C@H]1Oc2ccc(C#CCCCCC#Cc3ccc4c(c3)N(C)C(=O)[C@@H](NC(=O)c3n[nH]c(Cc5ccccc5)n3)[C@@H](C)O4)cc2N(C)C(=O)[C@H]1NC(=O)c1n[nH]c(Cc2ccccc2)n1 [US20240270732, Compound I-79] | 0.0105
7 | C#CCN1CCN(CC#Cc2ccc3c(c2)N(C)C(=O)[C@@H](NC(=O)c2ncn(Cc4cccc(N)c4)n2)[C@@H](C)O3)CC1 [US20240270732, Compound I-77] | 0.029
8 | C#CCN1CCN(CC#Cc2ccc3c(c2)N(C)C(=O)[C@@H](NC(=O)c2n[nH]c(Cc4cccc(N)c4)n2)[C@@H](C)O3)CC1 [US20240270732, Compound I-71] | 0.0239
9 | C[C@H]1Oc2ccc(C#CCCCCC(=O)O)cc2N(C)C(=O)[C@H]1NC(=O)c1n[nH]c(Cc2ccccc2)n1 [US20240270732, Compound I-107] | 0.0199
10 | C[C@H]1Oc2ccc(C#CCCO)cc2N(C)C(=O)[C@H]1NC(=O)c1n[nH]c(Cc2ccccc2)n1 [US20240270732, Compound I-105] | 0.00485
11 | C[C@H]1Oc2ccc(C#CCN3CCN(CC#Cc4ccc5c(c4)N(C)C(=O)[C@@H](NC(=O)c4cn(Cc6ccccc6)cn4)CO5)CC3)cc2N(C)C(=O)[C@H]1NC(=O)c1ncn(Cc2ccccc2)n1 [US20240270732, Compound I-28] | 0.00459
12 | CN1C(=O)[C@@H](NC(=O)c2ncn(Cc3ccccc3)n2)COc2ccc(C#CCOCCOCCOCCOCCOCC#Cc3ccc4c(c3)N(C)C(=O)[C@@H](NC(=O)c3ncn(Cc5ccccc5)n3)CO4)cc21 [US20240270732, Compound I-85-1] | 0.00749
13 | C[C@H]1Oc2ccc(C#Cc3ccncc3)cc2N(C)C(=O)[C@H]1NC(=O)c1ncn(Cc2ccccc2)n1 [US20240270732, Compound I-110] | 0.00473
14 | C#CCN1CCN(CC#Cc2ccc3c(c2)N(C)C(=O)[C@@H](NC(=O)c2noc(Cc4ccccc4)n2)[C@@H](C)O3)CC1 [US20240270732, Compound I-51] | 0.0159
15 | C[C@H]1Oc2ccc(C#CCN3CCN(CC#CC#CCN4CCN(CC#Cc5ccc6c(c5)N(C)C(=O)[C@@H](NC(=O)c5n[nH]c(Cc7ccccc7)n5)[C@@H](C)O6)CC4)CC3)cc2N(C)C(=O)[C@H]1NC(=O)c1n[nH]c(Cc2ccccc2)n1 [US20240270732, Compound I-91] | 0.00436
16 | C#CCN1CCN(CC#Cc2ccc3c(c2)N(C)C(=O)[C@@H](NC(=O)c2cn(Cc4ccccc4)cn2)[C@H](C)O3)CC1 [US20240270732, Compound I-63] | 0.0592
17 | C[C@H]1Oc2ccc(C#CCN3CCN(CC#Cc4ccc5c(c4)N(C)C(=O)[C@@H](NC(=O)c4ncn(Cc6cccc(N)c6)n4)[C@@H](C)O5)CC3)cc2N(C)C(=O)[C@H]1NC(=O)c1ncn(Cc2cccc(N)c2)n1 [US20240270732, Compound I-78] | 0.0231
18 | C#CCN1CCN(CC#Cc2ccc3c(c2)N(C)C(=O)[C@@H](NC(=O)c2cnn(Cc4ccccc4)c2)[C@@H](C)O3)CC1 [US20240270732, Compound I-47] | 0.0136
19 | C[C@H]1Oc2ccc(C#Cc3cccc(S(=O)(=O)O)c3)cc2N(C)C(=O)[C@H]1NC(=O)c1ncn(Cc2ccccc2)n1 [US20240270732, Compound I-114] | 0.0117
20 | C#CCN1CCN(CC#Cc2ccc3c(c2)NC(=O)[C@@H](NC(=O)c2n[nH]c(Cc4ccccc4)n2)[C@@H](C)O3)CC1 [US20240270732, Compound I-16] | 0.00559
21 | CC(O)C#Cc1ccc2c(c1)N(C)C(=O)[C@@H](NC(=O)c1n[nH]c(Cc3ccccc3)n1)[C@@H](C)O2 (stereo partly specified) [US20240270732, Compound I-103] | 0.0102
22 | C[C@H]1Oc2ccc(C#CCCCN(C)CCCC#Cc3ccc4c(c3)N(C)C(=O)[C@@H](NC(=O)c3ncn(Cc5ccccc5)n3)[C@@H](C)O4)cc2N(C)C(=O)[C@H]1NC(=O)c1ncn(Cc2ccccc2)n1 [US20240270732, Compound I-97] | 0.0183

More lines, now with the values ahead:

Row | IC50 [µM] | SMILES
23 | 0.00484 | C[C@H]1Oc2ccc(CCCN3CCN(CCCc4ccc5c(c4)N(C)C(=O)[C@@H](NC(=O)c4n[nH]c(Cc6ccccc6)n4)[C@@H](C)O5)CC3)cc2N(C)C(=O)[C@H]1NC(=O)c1n[nH]c(Cc2ccccc2)n1 [US20240270732, Compound I-124]
24 | 0.00818 | C[C@H]1Oc2ccc(C#CCOCCOCCOCCOCCOCC#Cc3ccc4c(c3)N(C)C(=O)[C@@H](NC(=O)c3n[nH]c(Cc5ccccc5)n3)CO4)cc2N(C)C(=O)[C@H]1NC(=O)c1n[nH]c(Cc2ccccc2)n1 [US20240270732, Compound I-83]
25 | 0.0221 | C[C@H]1Oc2ccc(C#CCN3CCN(CC#Cc4ccc5c(c4)N(C)C(=O)[C@@H](NC(=O)c4n[nH]c(Cc6cccc(N)c6)n4)[C@@H](C)O5)CC3)cc2N(C)C(=O)[C@H]1NC(=O)c1n[nH]c(Cc2cccc(N)c2)n1 [US20240270732, Compound I-72]
26 | 0.00354 | C[C@H]1Oc2ccc(C#CCN3CCN(CC#Cc4ccc5c(c4)N(C)C(=O)[C@@H](NC(=O)c4ncn(Cc6ccccc6)n4)CO5)CC3)cc2N(C)C(=O)[C@H]1NC(=O)c1cn(Cc2ccccc2)cn1 [US20240270732, Compound I-33]
27 | 0.00317 | CN1C(=O)[C@@H](NC(=O)c2n[nH]c(Cc3ccccc3)n2)COc2ccc(CCCN3CCN(CCCc4ccc5c(c4)N(C)C(=O)[C@@H](NC(=O)c4n[nH]c(Cc6ccccc6)n4)CO5)CC3)cc21 [US20240270732, Compound I-123]
28 | 0.00807 | CN1C(=O)[C@@H](NC(=O)c2cn(Cc3ccccc3)cn2)COc2ccc(C#CCN3CCN(CC#Cc4ccc5c(c4)N(C)C(=O)[C@@H](NC(=O)c4cn(Cc6ccccc6)cn4)CO5)CC3)cc21 [US20240270732, Compound I-62]
29 | 0.00991 | C[C@H]1Oc2ccc(C#CCN3CCN(CC#Cc4ccc5c(c4)N(C)C(=O)[C@@H](NC(=O)c4cn(Cc6ccccc6)cn4)[C@@H](C)O5)CC3)cc2N(C)C(=O)[C@H]1NC(=O)c1cn(Cc2ccccc2)cn1 [US20240270732, Compound I-60]
30 | 0.00196 | CN1C(=O)[C@@H](NC(=O)c2n[nH]c(Cc3ccccc3)n2)COc2ccc(C#CCN3CCN(CC#Cc4ccc5c(c4)N(C)C(=O)[C@@H](NC(=O)c4n[nH]c(Cc6ccccc6)n4)CO5)CC3)cc21 [US20240270732, Compound I-11]
31 | 0.0185 | CN(CCCC#Cc1ccc2c(c1)N(C)C(=O)[C@@H](NC(=O)c1n[nH]c(Cc3ccccc3)n1)CO2)CCCC#Cc1ccc2c(c1)N(C)C(=O)[C@@H](NC(=O)c1n[nH]c(Cc3ccccc3)n1)CO2 [US20240270732, Compound I-96]
32 | 0.0066 | CN1C(=O)[C@@H](NC(=O)c2n[nH]c(Cc3ccccc3)n2)COc2ccc(C#CCOCCOCCOCCOCCOCC#Cc3ccc4c(c3)N(C)C(=O)[C@@H](NC(=O)c3n[nH]c(Cc5ccccc5)n3)CO4)cc21 [US20240270732, Compound I-82-1]
33 | 0.00744 | C[C@H]1Oc2ccc(C#CCN3CCN(CC#Cc4ccc5c(c4)N(C)C(=O)[C@@H](NC(=O)c4nnn(Cc6ccccc6)n4)[C@@H](C)O5)CC3)cc2N(C)C(=O)[C@H]1NC(=O)c1nnn(Cc2ccccc2)n1 [US20240270732, Compound I-56]
34 | 0.00492 | CN1C(=O)[C@@H](NC(=O)c2ncn(Cc3ccccc3)n2)COc2ccc(CCCN3CCN(CCCc4ccc5c(c4)N(C)C(=O)[C@@H](NC(=O)c4ncn(Cc6ccccc6)n4)CO5)CC3)cc21 [US20240270732, Compound I-121]
35 | 0.00969 | O=C(N[C@H]1COc2ccc(C#CCN3CCN(CC#Cc4ccc5c(c4)NC(=O)[C@@H](NC(=O)c4n[nH]c(Cc6ccccc6)n4)CO5)CC3)cc2NC1=O)c1n[nH]c(Cc2ccccc2)n1 [US20240270732, Compound I-21]
36 | 0.0108 | C[C@H]1Oc2ccc(C#CCN3CCN(CC#Cc4ccc5c(c4)N(C)C(=O)[C@@H](NC(=O)c4cc(Cc6ccccc6)on4)[C@@H](C)O5)CC3)cc2N(C)C(=O)[C@H]1NC(=O)c1cc(Cc2ccccc2)on1 [US20240270732, Compound I-46]
